# ± gives the expanded uncertainty stated by the source.
# Conditions: 323.15 K, Liquid, Vibrating tube method
compound,measurement,setting,value
CCCCCCCCCC [decane],mass density,24083 kPa,726.8 ± 2.1 kg/m3
same,mass density,24123 kPa,726.9 ± 2.1 kg/m3
same,mass density,24146 kPa,726.8 ± 2.1 kg/m3
same,mass density,24177 kPa,726.9 ± 2.1 kg/m3
same,mass density,24209 kPa,727 ± 2.1 kg/m3
same,mass density,24240 kPa,726.9 ± 2.1 kg/m3
same,mass density,24281 kPa,727 ± 2.1 kg/m3
same,mass density,24323 kPa,727 ± 2.1 kg/m3
same,mass density,24359 kPa,727 ± 2.1 kg/m3
same,mass density,24392 kPa,727 ± 2.1 kg/m3
same,mass density,24425 kPa,727 ± 2.1 kg/m3
same,mass density,24463 kPa,727 ± 2.1 kg/m3
same,mass density,24511 kPa,727.1 ± 2.1 kg/m3
same,mass density,24544 kPa,727.1 ± 2.1 kg/m3
same,mass density,24568 kPa,727.3 ± 2.1 kg/m3
same,mass density,24605 kPa,727.2 ± 2.1 kg/m3
same,mass density,24671 kPa,727.3 ± 2.1 kg/m3
same,mass density,25856 kPa,728 ± 2.1 kg/m3
same,mass density,25903 kPa,728.1 ± 2.1 kg/m3
same,mass density,25945 kPa,728.2 ± 2.1 kg/m3
same,mass density,25978 kPa,728.2 ± 2.1 kg/m3
same,mass density,26015 kPa,728.1 ± 2.1 kg/m3
same,mass density,26052 kPa,728.2 ± 2.1 kg/m3
same,mass density,26084 kPa,728.3 ± 2.1 kg/m3
same,mass density,26113 kPa,728.2 ± 2.1 kg/m3
same,mass density,26150 kPa,728.3 ± 2.1 kg/m3
same,mass density,26239 kPa,728.3 ± 2.1 kg/m3
same,mass density,26279 kPa,728.4 ± 2.1 kg/m3
same,mass density,26309 kPa,728.5 ± 2.1 kg/m3
same,mass density,26382 kPa,728.5 ± 2.1 kg/m3
same,mass density,26425 kPa,728.4 ± 2.1 kg/m3
same,mass density,26468 kPa,728.7 ± 2.1 kg/m3
same,mass density,26506 kPa,728.5 ± 2.1 kg/m3
same,mass density,26540 kPa,728.6 ± 2.1 kg/m3
same,mass density,26579 kPa,728.6 ± 2.1 kg/m3
same,mass density,26618 kPa,728.6 ± 2.1 kg/m3
same,mass density,26657 kPa,728.8 ± 2.1 kg/m3
same,mass density,26692 kPa,728.7 ± 2.1 kg/m3
same,mass density,27084 kPa,728.9 ± 2.1 kg/m3
same,mass density,27120 kPa,729 ± 2.1 kg/m3
same,mass density,27152 kPa,729.1 ± 2.1 kg/m3
same,mass density,27187 kPa,729.1 ± 2.1 kg/m3
same,mass density,27223 kPa,729.1 ± 2.1 kg/m3
same,mass density,27259 kPa,729.1 ± 2.1 kg/m3
same,mass density,27290 kPa,729.1 ± 2.1 kg/m3
same,mass density,27331 kPa,729.1 ± 2.1 kg/m3
same,mass density,27727 kPa,729.5 ± 2.1 kg/m3
same,mass density,27833 kPa,729.5 ± 2.1 kg/m3
same,mass density,28265 kPa,729.7 ± 2.1 kg/m3
same,mass density,28432 kPa,729.9 ± 2.1 kg/m3
same,mass density,29106 kPa,730.4 ± 2.1 kg/m3
same,mass density,29187 kPa,730.5 ± 2.1 kg/m3
same,mass density,29218 kPa,730.5 ± 2.1 kg/m3
same,mass density,29260 kPa,730.5 ± 2.1 kg/m3
same,mass density,29336 kPa,730.6 ± 2.1 kg/m3
same,mass density,29452 kPa,730.6 ± 2.1 kg/m3
same,mass density,29479 kPa,730.7 ± 2.1 kg/m3
same,mass density,29510 kPa,730.7 ± 2.1 kg/m3
same,mass density,29547 kPa,730.7 ± 2.1 kg/m3
same,mass density,29594 kPa,730.7 ± 2.1 kg/m3
same,mass density,31137 kPa,731.8 ± 2.1 kg/m3
same,mass density,31166 kPa,731.8 ± 2.1 kg/m3
same,mass density,31206 kPa,731.8 ± 2.1 kg/m3
same,mass density,32493 kPa,732.8 ± 2.1 kg/m3
same,mass density,32550 kPa,732.8 ± 2.1 kg/m3
same,mass density,32582 kPa,732.7 ± 2.1 kg/m3
same,mass density,32606 kPa,732.8 ± 2.1 kg/m3
same,mass density,32634 kPa,732.8 ± 2.1 kg/m3
same,mass density,32659 kPa,732.7 ± 2.1 kg/m3

# Source: the NIST ThermoML archive (doi:10.1021/je800110r)
